Measurements published in patent US6451340B1, “Nucleotide analog compositions” (Gilead Sciences, Inc., priority 1997, dated 2002).
Read-outs that look alike come from different tables or passages of the source.

Assays:
[1] = AD solubility in crystallization solvents; format: physicochemical; conditions: for solubility: organic solvent or mixture
Experimental: Crystalline AD is prepared by allowing crystal formation in an AD composition, usually from a solution of AD in a crystallization mixture containing at least about 6%, typically at least about 30%, usually at least about 35%, of AD. One would ordinarily conduct crystallizations by preparing an AD solution comprising about 6-45% AD and about 55-94% crystallization solvent. […] AD is not freely soluble in some crystallization solvents, e.g., AD solubility in di-n-butyl ether is less than about 0.3 mg/mL, and adding these solvents to an AD solution increases the degree of saturation or supersaturation of the solution. One usually uses organic solutions containing an amount of AD that is near the upper solubility limit in the crystallization solvent(s). The lower amount, about 6%, is the minimum amount of AD needed in a solution to consistently yield crystals. Certain solvents, e.g., methanol or CH2Cl2, can contain more than about 50% AD.
One usually prepares Form 3 crystals by allowing crystals to grow in an anhydrous methanol solution of AD. One obtains AD in methanol by mixing sufficient noncrystalline or crystalline AD in methanol for about 10-15 minutes at room temperature or as needed to dissolve the solid AD to obtain a solution having at least about 100-150 mg AD/mL methanol. AD solubility in methanol at room temperature is greater than 600 mg/mL. Crystallization then proceeds for about 4 to about 48 hours at a temperature of about −5° to about 25°, usually at about 0-23°.
Recrystallization generally begins shortly after completion of adding and mixing the di-n-butyl ether and one then allows recrystallization to proceed for about 4-36 hours, usually about 6-24 hours. Additional yield of crystals from recrystallization at room temperature for about 4-36 hours is usually obtained by cooling the recrystallization mixture to about 4-10° and allowing the mixture to stand about 1-6 hours at the reduced temperature. Usually, the amount of AD one uses in a recrystallization will be sufficient to form a saturated or nearly saturated solution, i.e., about 0.4 g/mL using acetone. Dissolution of AD in acetone is complete in about 2-8 minutes using moderate agitation. Material remaining undissolved after this initial mixing period is removed and discarded, followed by adding the second less polar solvent of the solvent pair to the mixture containing the first crystallization solvent.
One conducts a Form 3 recrystallization in methanol in the same manner as described herein for preparation of Form 3 crystals. A saturated or nearly saturated methanol solution is used to prepare the crystals, i.e., at least about 0.6 g/mL AD.

[2] = L-carnitine levels in patients taking AD; format: in vivo
Source text: Formulations containing crystalline AD and an excipient(s) may also contain L-carnitine or salts of L-carnitine, e.g., L-carnitine-L-tartrate (2:1). […] Tablets containing L-carnitine-L-tartrate and AD may decrease the effect of pivalic acid on L-carnitine depletion in patients taking AD. The amount of L-carnitine to be included will be apparent to the clinician in view of the extent of depletion in patients.

With `CC(C)(C)C(=O)OCOP(=O)(COCCn1cnc2c(N)ncnc21)OCOC(=O)C(C)(C)C` [AD, 9-[2-[[bis[(pivaloyloxy)methoxy]phosphinyl]methoxy]ethyl]adenine] the “saturated or nearly saturated solution of AD” value ([1]; acetone) was “about 0.4 g/mL”, the solubility ([1]; di-n-butyl ether, read-out: AD solubility in di-n-butyl ether) was < 0.3 mg/mL and the “saturated or nearly saturated solution of AD” value ([1]; methanol) was “at least 0.6 g/mL”. The “amount of AD the solvent can contain” value ([1]; methanol or CH2Cl2, % w/w) was “more than 50%”, the “upper limit of solubility of AD” value ([1]; most crystallization solvents, room temperature, % w/w) was 10-41% and the solubility ([1]; methanol, room temperature, read-out: AD solubility in methanol) was > 600 mg/mL. The “effect on L-carnitine levels (release of pivalic acid in vivo)” value [2] was “appears to lower the levels of L-carnitine”.
